According to PubChem BioAssay AID449764 (Southern Research Specialized Biocontainment Screening …, 2010):

System: Mycobacterium tuberculosis H37Rv growth inhibition, no glycerol
Experiment: Mycobacterium tuberculosis H37Rv growth inhibition, no glycerol, confirmatory dose response (AID 449764);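 note: growth read after 7 days of incubation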
Conditions: for IC90: measured here: IC90 growth inhibition

Compound: CC1CC(C)(C)Nc2ccc(OC(=O)c3ccco3)cc21 (stereo unspecified)
- IC50: 21.7 µM
- IC90: 29.5 µM

Compound: COc1nn(-c2ccccc2)c(=O)c(Cl)c1Cl
- IC50: 10.3 µM
- IC90: 13.6 µM

Compound: CC1=NOC(=O)/C1=C/c1ccc(-c2ccc(Cl)cc2)o1
- IC50: 18.4 µM
- IC90: > 100 µM

Compound: COc1ccc(C(C[N+](=O)[O-])c2c(-c3ccccc3)cc3ccccn23)c(OC)c1 (stereo unspecified)
- IC50: 45.7 µM
- IC90: 51.8 µM

Compound: CNC[C@@H](Cc1ccccc1)NC[C@@H](CC1CCCCC1)NCCCc1ccccc1
- IC50: 7.99 µM
- IC90: 9.68 µM

Compound: Cc1nc(-c2nc(-c3c(C(=O)NNC(=O)c4ccc(Cl)cc4)noc3C)cs2)cs1
- IC50: 24.7 µM
- IC90: > 100 µM

Compound: CCOC(=O)N1CCN(C(=O)CSc2nnc(-c3ccc(Cl)s3)o2)CC1
- IC50: 25.2 µM
- IC90: 29.9 µM

Compound: CC(C)(C)C1CCc2c(sc3nc(SCC(N)=O)nc(N)c23)C1 (stereo unspecified)
- IC50: 22.1 µM
- IC90: 33.5 µM

Compound: Cc1ccc(OC/C(O)=C(\C#N)c2nc3ccccc3s2)cc1
- IC50: 25.7 µM
- IC90: 41.1 µM

Compound: COc1ccc(NC(=O)NC(C)C2CC3CCC2C3)cc1 (stereo unspecified)
- IC50: 25.3 µM
- IC90: 43.1 µM

Compound: Cc1cccc(C)c1Nc1c(-c2ccccn2)nc2ccccn12
- IC50: 5.93 µM
- IC90: 8.59 µM

Compound: CCOC(=O)CSc1ncnc2c1sc1nc(N3CCOCC3)c3c(c12)CCCC3
- IC50: 24.9 µM
- IC90: 27.9 µM

Compound: CCOc1cc(/C=C\[N+](=O)[O-])ccc1OCC(=O)Nc1ccccc1C
- IC50: 29.8 µM
- IC90: 59 µM

Compound: COc1ccc(N=c2cc(-c3ccc(O)cc3)oc3ccccc23)cc1
- IC50: 23.3 µM
- IC90: 26.5 µM

Compound: Cc1ccc(C)c(N/C(N)=N/c2nc(C)cc(C)n2)c1
- IC50: 7.67 µM
- IC90: 12.7 µM

Compound: CCN(CC)c1nc(NN)nc(Nc2ccc(C)c(Cl)c2)n1
- IC50: 5.84 µM
- IC90: 6.79 µM

Compound: CCCCC(=O)Nc1sc2c(c1C(=O)OCC)CCC(C=O)=C2Cl
- IC50: 38.8 µM
- IC90: > 100 µM

Compound: CC1=NN(C(=O)c2ccc(Br)cc2)C(O)(c2ccccc2)C1 (stereo unspecified)
- IC50: 42.3 µM
- IC90: 52.6 µM

Compound: CC(C)C(=O)N1CCC2(CC1)Oc1ccc(Cl)cc1C(=O)C21CC(c2ccccc2)=NO1 (stereo unspecified)
- IC50: 59.4 µM
- IC90: > 100 µM

Compound: O=C(CCl)N1CCCC1c1ccc2c(c1)OCCO2 (stereo unspecified)
- IC50: 8.76 µM
- IC90: 14.1 µM

Compound: CC1CCN(C(=O)C2CCN(c3nnc(-n4cccc4)s3)CC2)CC1
- IC50: 3.51 µM
- IC90: 6.13 µM

Compound: Cc1ccc2c(c1)C1C[N+](C)(CC(=O)c3ccc(Cl)cc3Cl)CCC1N2C(=O)c1ccc(F)cc1 (stereo unspecified)
- IC50: 32.2 µM
- IC90: 41 µM

Compound: Cc1cc(-c2nnc3n2CCCCC3)c(C)n1-c1ccccc1
- IC50: 45.3 µM
- IC90: 73.8 µM

Compound: COc1ccc(Nc2nc(N3CCCCC3)nc3ccccc23)c(OC)c1
- IC50: 22.7 µM
- IC90: 26 µM

Compound: O=C1NCC(c2ccccc2)C1C(=O)N/N=C\c1ccc(-c2ccc(Cl)c(Cl)c2)o1 (stereo unspecified)
- IC90: > 100 µM

Compound: Cc1ccc(/C=C(\NC(=O)c2ccc(C)cc2)c2nc(=S)[nH][nH]2)cc1
- IC50: 45.6 µM
- IC90: 49.5 µM

Compound: COc1ccc([C@H]2CC(=O)C=C(c3ccc4c5c(cccc35)CC4)C2)cc1
- IC90: > 100 µM

Compound: C/C(=N\Nc1ccc([N+](=O)[O-])cc1)c1cccc(N)c1
- IC50: 61.2 µM
- IC90: 88.9 µM

Compound: CC1=C(/C=C/C(C)=C/C=C/C(C)=C/C(=O)Nc2ccc(O)cc2)C(C)(C)CCC1
- IC50: 44.2 µM
- IC90: 64.7 µM

Compound: C/C(=N\NC(=S)Nc1cccc(C)c1)c1cccc(N)c1
- IC50: 21.6 µM
- IC90: 23.7 µM

Compound: O=C(Nc1ccc([N+](=O)[O-])cc1)Nc1ccc(OC(F)F)c(Cl)c1
- IC50: 2.5 µM
- IC90: 3.63 µM

Compound: Cc1nn(-c2ccccc2)c(C)c1/C=N/NC(=O)c1cc(-c2cccc3ccccc23)n[nH]1
- IC50: 48.3 µM
- IC90: > 100 µM

Compound: Cc1cc(/C=C\c2ccc3cc(N(C)C)ccc3[n+]2C)c(C)n1-c1ccccc1
- IC50: 3.26 µM
- IC90: 4.49 µM

Compound: CC1CCCC(C)N1C(=O)COC(=O)c1cc(-c2cccs2)nn1-c1ccccc1 (stereo unspecified)
- IC50: 62.2 µM
- IC90: 86.3 µM

Compound: CC(=O)c1cccc2c(O)c(C3=Nc4ccccc4C3=O)[nH]c12
- IC50: 11.5 µM
- IC90: 12.9 µM

Compound: O=C(Cc1ccc([N+](=O)[O-])cc1)Nc1cc(C(F)(F)F)cc(C(F)(F)F)c1
- IC50: 2.48 µM
- IC90: 3.41 µM

Compound: CCNCC(=O)N1c2ccccc2CCc2ccc(NC(=O)OC(C)C)cc21
- IC50: 53.7 µM
- IC90: 77 µM

Compound: CCOC(=O)c1ccc(-n2c(CCC(=O)O)ccc2-c2cccs2)cc1
- IC50: 20.8 µM
- IC90: 23.6 µM

Compound: CCn1c(SCC(=O)OC2CCCCC2)nc2ccccc2c1=O
- IC50: 40.3 µM
- IC90: 55.1 µM

Compound: Cc1ccc2[nH]c(C)c(CCNC(=O)c3cc4cc([N+](=O)[O-])ccc4oc3=O)c2c1
- IC50: 11.2 µM
- IC90: 17.8 µM

Compound: Cc1cc(=O)n2[nH]c(Nc3cccc(Cl)c3)nc2n1
- IC50: 29.1 µM
- IC90: 68 µM

Compound: Cn1nc(C(C)(C)C)cc1NC(=O)Nc1cc(Cl)cc(Cl)c1
- IC50: 18.2 µM
- IC90: 25.6 µM

Compound: Cc1c(C(=O)Oc2cccc3ccccc23)cnn1-c1ccccc1
- IC50: 22.8 µM
- IC90: 26.1 µM

Compound: Oc1ccc(C[C@H]2CNCCN2CCCCC2CCCCC2)cc1
- IC50: 40 µM
- IC90: 55.3 µM

Compound: C=CCN(C(=O)CSc1nc2c(sc3ccccc32)c(=O)n1CCN(CC)CC)c1ccccc1
- IC50: 30.8 µM
- IC90: 38.8 µM

Compound: CCCCN1C(=N)N([C@@H](CCC)CN2CCC[C@H]2CN2C(N)=NC[C@@H]2Cc2ccccc2)C[C@H]1Cc1ccccc1
- IC50: 23.9 µM
- IC90: 27.6 µM

Compound: CC1CCc2c(C(=O)Nc3nccs3)csc2C1 (stereo unspecified)
- IC50: 41.9 µM
- IC90: 80.3 µM

Compound: Cc1ccc(/C=C/C(=O)N2CC(C)CC(C)C2)o1 (stereo unspecified)
- IC50: 36.3 µM
- IC90: 49.4 µM

Compound: Clc1ccc2c(c1)CCc1cccnc1C2=C1CCNCC1
- IC50: 32.9 µM
- IC90: 38.8 µM

Compound: Cc1cccc2c1-c1sc(C(=O)Nc3ccccc3N3CCN(C)CC3)cc1CO2
- IC50: 24.1 µM
- IC90: 27.6 µM

Compound: COc1ccc(C(=O)/C=C/c2cc(OC)c(O)c(OC)c2)c(F)c1
- IC50: 60.7 µM
- IC90: > 100 µM

Compound: Cc1cc(C)n2nc(/C(C#N)=C/c3ccccn3)c(C#N)c2n1
- IC50: 19.4 µM
- IC90: 35.5 µM

Compound: Cc1cc2c(cc1C)CSC(c1c(O)ccc3ccccc13)SC2
- IC50: 61.2 µM
- IC90: > 100 µM

Compound: O=c1[nH]c2ccccc2c2oc(CCl)nc12
- IC50: 7.37 µM
- IC90: 22.1 µM

Compound: CC(=O)Oc1ccc(/C=N\NC(=O)c2cc3c(ccc4ccccc43)o2)cc1
- IC90: > 100 µM

Compound: COc1ccccc1-n1cc2c([N+](=O)[O-])cc([N+](=O)[O-])cc2n1
- IC50: 1.98 µM
- IC90: 5.89 µM

Compound: C#CCOCCOCCOCCNc1nc(N2CCN(C(=O)CCCCCCCCCCNC(=O)[C@H](CCCCN)n3cc(CCCC(=O)O)nn3)CC2)nc(N2CCN(C(=O)CCCCCCCCCCNC(=O)[C@H](CCCN=C(N)N)n3cc(C[C@@H](C)CC)nn3)CC2)n1
- IC50: 6.73 µM
- IC90: 9.93 µM

Compound: O=C(Nc1nc2ccc(F)cc2s1)C1CCN(S(=O)(=O)c2cc([N+](=O)[O-])ccc2Cl)CC1
- IC50: 12 µM
- IC90: 17.6 µM

Compound: O=C(Nc1cc(C(F)(F)F)ccc1-n1cncn1)c1ccc([N+](=O)[O-])o1
- IC50: 37 µM
- IC90: 54.2 µM

Compound: CCCn1c(=N)n(CC(=O)c2ccc(OCC(=O)OC)cc2)c2ccccc21
- IC50: 20.1 µM
- IC90: 35.9 µM

Compound: COc1ccc(C(=O)COC(=O)[C@H](C)Nc2ccc(C(F)(F)F)cc2[N+](=O)[O-])cc1
- IC50: 18.1 µM
- IC90: > 25 µM

Compound: O=C(CCl)Nc1cn(-c2ccccc2)nc1-c1ccccc1
- IC50: 0.5 µM
- IC90: 1.23 µM

Compound: CCc1cc(C(=O)NNC(=O)CCl)sc1C
- IC50: 5.03 µM
- IC90: 7.55 µM

Compound: Cc1cc([N+](=O)[O-])c2ccccc2[n+]1[O-]
- IC50: 8.67 µM
- IC90: 13.8 µM

Compound: CCN1CCN(Cc2ccc(NC(=O)c3cc(NC(=O)c4cncc(-c5cccs5)c4)cc(OC)c3)cc2C(F)(F)F)CC1
- IC50: 10.3 µM
- IC90: 16.5 µM

Compound: c1ccc(-c2nc(N3CCCC3)nc3ccccc23)cc1
- IC50: 47 µM
- IC90: 53.5 µM

Compound: Cc1cc(Br)ccc1NC(=O)c1cnc(N2CCN(c3ccccn3)CC2)c2ccccc12
- IC50: 2.34 µM
- IC90: 3.49 µM

Compound: COc1cc(-c2ccc3oc(-c4ccsc4)cc(=O)c3c2)cc(OC)c1OC
- IC50: 38.1 µM
- IC90: 53.6 µM

Compound: COc1ccc(C)cc1Nc1n[n+](-c2ccccc2)c(-c2c(Cl)cccc2Cl)s1
- IC50: 18.4 µM
- IC90: 24.9 µM

Compound: Cn1c(SCc2ccccc2)nc(N)c(N=O)c1=O
- IC50: 18.4 µM
- IC90: 25.6 µM

Compound: O=C(OCC(=O)N1CCN(c2ccccc2)CC1)c1cnc(Cl)c(Cl)c1
- IC50: 27 µM
- IC90: 58.1 µM

Compound: COC(=O)C(C)Oc1ccc(-c2nccc(-c3ccccn3)n2)cc1 (stereo unspecified)
- IC50: 3.91 µM
- IC90: 6.95 µM

Compound: CCOc1cc(CNCCCN2CCOCC2)cc(Br)c1OCC(=O)Nc1cccc(C(F)(F)F)c1
- IC50: 23.3 µM
- IC90: 32 µM

Compound: CCCCCCOC(=O)C(C#N)c1nc2ccccc2nc1N1CCN(CC)CC1 (stereo unspecified)
- IC50: 21.3 µM
- IC90: 32.3 µM

Compound: CC(C)(O)[C@H]1O[C@H]2CC[C@@]3(C)[C@@](O)(CC[C@H]4Cc5c([nH]c6ccccc56)[C@@]43C)C2=CC1=O
- IC50: 48.7 µM
- IC90: > 100 µM

Compound: COc1ccccc1Nc1nc(N)nc(CCl)n1
- IC50: 4.83 µM
- IC90: 12.3 µM

Compound: c1ccc(CN2CCC3(CCCc4ccccc43)CC2)cc1
- IC50: 12.2 µM
- IC90: 15.8 µM

Compound: CCC(=O)NC(=S)Nc1ccc(NC(=O)COc2ccc(Cl)cc2Cl)cc1
- IC50: 79.3 µM
- IC90: > 100 µM

Compound: Cc1ccc(C)c(NC(=O)c2cc(-c3ccccc3)nn2-c2ccccc2)c1
- IC50: 34.6 µM
- IC90: 55.9 µM

Compound: COc1ccc(Cl)cc1C(=O)O/N=C(\N)c1ccccn1
- IC50: 76.4 µM
- IC90: > 100 µM

Compound: C(=N\NC1=Nc2cccc3cccc1c23)/c1cccnc1
- IC50: 92.8 µM
- IC90: > 100 µM

Compound: N#C/C=C\Oc1ccc(Cl)cc1N
- IC50: 21.5 µM
- IC90: 23.9 µM

Compound: C=CCN(CC(=O)c1sc(C(=O)OCC)nc1C)c1cccc(Br)c1
- IC50: 20.8 µM
- IC90: 32.6 µM

Compound: COC(=O)C(C)Oc1cc(C)ccc1COc1ccc(-n2nc(C)n(C(F)F)c2=O)cc1 (stereo unspecified)
- IC50: 21.3 µM
- IC90: 27.5 µM

Compound: CC1=CC(=O)C(C(C)C)=C/C1=N/OS(=O)(=O)c1ccccc1
- IC50: 4.28 µM
- IC90: 7.65 µM

Compound: Cc1ccc(Cl)cc1N1CCN(C(=O)C2CCC(=O)N(C3CCCCCC3)C2)CC1 (stereo unspecified)
- IC50: 28.7 µM
- IC90: 40.4 µM

Compound: N=c1n(Cc2ccc(Cl)cc2)c2ccccc2n1CC(O)COc1ccccc1 (stereo unspecified)
- IC50: 22.7 µM
- IC90: 27.2 µM
